Data from patent publication US5573772A, “Methods for protecting tissues and organs from ischemic damage” (priority 1994, dated 1996).

Test system: isolated rabbit hearts
Assay: Infarct size after 30 min coronary branch occlusion and 120 min reperfusion in isolated rabbit hearts, Example 1
Design: species or system rabbit (New Zealand white)
Details: for Infarct size compared with control group: ADO 10 uM or APNEA 50 nM, p<0.01
Experimental: These solutions were then diluted in Krebs buffer to the final concentration just before the experiments started. New Zealand white rabbits of either sex, between 1.4-2.4 kg, were anesthetized with intravenous sodium pentobarbital (30 mg/kg). The neck was opened and a tracheotomy was performed. The rabbits were ventilated with 100% oxygen via a positive pressure respirator (MD industries, Mobile, Ala.). Ventilation rate was 30-35 breaths per minute, and tidal volume was approximately 15 ml. A left thoracotomy was performed in the fourth intercostal space and pericardium was opened to expose the heart. A 2-0 silk suture with an RB taper needle was passed around a branch of the left coronary artery, and the end of the silk were threaded through a small vinyl tube to form a snare. The heads were quickly excised and mounted on a Langendorff apparatus and perfused at constant pressure with Krebs buffer containing (in mM) 118.5 NaCl, 4.7 KCl, 1.2 MgSO4, 1.2 K2 PO4, 24.3 NaHCO3, 2.5 CaCl2 and 10 glucose. […] The temperature of the perfusate was maintained at 37° C. The perfusion pressure was kept at 75 mm Hg. Pacing electrodes were placed on the right atrium and all hearts were paced at 200 beats/minute with pulses of 5 volts and 4 msec duration to keep the heart rate constant. A fluid-filled latex balloon connected to a transducer via PE240 tubing was inserted into the left ventricle. Balloon volume was adjusted to set the left ventricular diastolic pressure at 10 mm Hg at the beginning of the experiment. Total coronary artery flow was measured by timed collection of buffer from the chamber into a graduated cylinder. Regional ischemia was effected by pulling the snare tight and clamping the tube with a hemostat. Global ischemia was performed by clamping the inflow tubing of the Langendorff apparatus. Reperfusion was achieved by releasing the restriction. All hearts were allowed to equilibrate for 20 minutes before the experiments were started. Heart rate (HR), coronary flow (CF) and left ventricular developed pressure (LVDP) were recorded at the point just before and at the end of each treatment with the pacing momentarily turned off. […] The hearts were removed from the Langendorff apparatus, weighed and then frozen. The hearts were cut into 2 mm transverse slices. The slices were thawed and incubated in 1% triphenyl tetrazolium chloride (TTC) in pH 7.4 buffer for 20 minutes at 37° C. TTC reacts with NADH and dehydrogenase enzymes and stains all tissue still having them to a deep red color. […] After staining, the area of infarcted tissue (TTC negative tissue) and the risk zone (area lacking fluorescence under ultraviolet light) in each slice were traced. The area of infarct and risk zone were determined by planimetry of the tracing. The volume of infarcted myocardium and myocardium at risk was then calculated by multiplying the planimetered areas by the slice thickness. The animals were divided into 10 groups. The hearts in all groups were subjected to 30 minutes of coronary branch occlusion followed by 120 minutes of reperfusion. Control group (CON, n=10) only experienced the above-mentioned 30 minutes of regional ischemia while the preconditioned group (PC, n=12) received an additional 5 minutes of global ischemia plus 10 minutes of reperfusion prior to the 30 minute occlusion. In the adenosine group (ADO, n=6) and the APNEA group (APNEA, n=5), the hearts were exposed to 10 uM adenosine and 50 nM APNEA respectively, for 5 minutes as a substitute for ischemic preconditioning. The drug was allowed to washout for 10 minutes before the 30 minute ischemia was started. In groups receiving SPT, the blocker was included in the perfusate for 15 minutes at 100 uM starting 5 minutes before the exposure of ADO (ADO-SPT group, n=6) or APNEA (APNEA-SPT group, n=5) or 5 minutes before and after 5 minutes of preconditioning ischemia (PC-SPT group, n=5). […] All results are expressed as group mean±SEM. […]

Nc1ncnc2c1ncn2[C@@H]1O[C@H](CO)[C@@H](O)[C@H]1O [ADO, Adenosine]
Infarct size compared with control group: significantly smaller than those in the control group
Infarct size (area at risk infarcted) (ADO 10 uM, 5 minutes, control 29.4±2.9%, PC 10.8±2.8%): 11.4±2.1%

Nc1ccc(CCNc2ncnc3c2ncn3[C@@H]2O[C@H](CO)[C@@H](O)[C@H]2O)cc1 [APNEA, N^6-(2-(4-aminophenyl)ethyl) adenosine]
Infarct size compared with control group: significantly smaller than those in the control group
Infarct size (area at risk infarcted) (APNEA 50 nM, 5 minutes, control 29.4±2.9%): 11.9±2.3%

Cn1c(=O)c2[nH]c(-c3ccc(S(=O)(=O)O)cc3)nc2n(C)c1=O [SPT, 8-(p-Sulfophenyl)-theophylline]
Infarct size (area at risk infarcted) (SPT 100 uM + ADO 10 uM (ADO-SPT)): 29.8±3.4%
Infarct size (area at risk infarcted) (SPT 100 uM + APNEA 50 nM (APNEA-SPT)): 32.8±3.3%
Infarct size (area at risk infarcted) (SPT 100 uM + PC (PC-SPT)): 33.8±2.4%

CCCn1c(=O)c2[nH]c(C3CCCC3)nc2n(CCC)c1=O [DPCPX, 8-cyclopentyl-1,3-dipropylxanthine]
Infarct size (area at risk infarcted) (DPCPX 200 nM + ADO 10 uM (ADO-DPCPX)): 14.4±7.0%
Infarct size (area at risk infarcted) (DPCPX 200 nM + APNEA 50 nM (APNEA-DPCPX)): 8.7±1.7%
Infarct size (area at risk infarcted) (DPCPX 200 nM + PC (PC-DPCPX)): 15.6±7.8%
